Experimental data: PMC7509492, “To What Extent Do Fluorophores Bias the Biological Activity of Peptides? A Practical Approach Using Membrane-Active Peptides as Models” (Frontiers in Bioengineering and Biotechnology, 2020)
Read-outs that look alike come from different tables or passages of the source. Ends that are not written are not given here. Peptide text beside a SMILES is read from it. * marks the point of attachment. RhodamineB = CCN(CC)c1ccc2c(-c3ccccc3C(=O)*)c3ccc(=[N+](CC)CC)cc-3oc2c1; X1 = CC[N+]1=C(C=CC=C2N(CCCCCC(=O)*)c3ccccc3C2(C)C)C(C)(C)c2ccccc21; 5FAM = O=C1OC2(c3ccc(O)cc3Oc3cc(O)ccc32)c2ccc(C(=O)*)cc21

Legend:
[1] = tested on: HBEC-5i cells (in vitro BBB model); test: In vitro BBB translocation across HBEC-5i transwell monolayer; assay type: in vitro ADME, human; conditions: HBEC-5i monolayer on PET transwell 1.0 μm pores, apical to basolateral, 10 μM, 24 h, DMEM:F12 without phenol red, mean ± SD, triplicates of three independent experiments
Description: HBEC-5i cells were allowed to grow until confluence in a gelatin-coated T-flask. Then, cells were carefully harvested with trypsin-EDTA (Gibco/Thermo Fisher, United States) and seeded 8,000 cells/well to 0.1% gelatin solution coated tissue culture inserts [transparent polyester (PET) membrane with 1.0 μm pores] for 24-well plates (BD Falcon, United States). During 8 days, the medium was changed every 2 days. After 8 days, cells were washed two times with 1× PBS and once with DMEM:F12 medium without phenol red (Gibco/Thermo Fisher, United States). Then, peptides diluted in DMEM:F12 medium without phenol red to a final concentration of 10 μM were added to the apical side of the in vitro BBB model (Figure 1). Experiments were performed on different days using independently grown cell cultures.
FIGURE 1 Scheme of an in vitro BBB transwell membrane system. Human brain endothelial cells (HBEC-5i) are cultured as monolayer on the apical side of a polyester (PET) transwell insert (1.0 μm pore size). Then, 10 μM of peptides are added to the apical side, and the translocation measured as the amount detected on the basolateral side.
The translocation of peptides labeled with different fluorophores was determined by fluorescence emission. After 24 h incubation, samples from the apical and basolateral side were collected and analyzed. Fluorescence was measured using the infinite F200 TECAN plate reader. The percentage (%) of translocation was calculated using the following equation:
(3) Translocation(%)=(Fi-Fcells/Fpeptide-FMedium)×100
Fi is the fluorescence intensity recovered, Fcells is the fluorescence intensity recovered from cells without peptide incubation, Fpeptide is the fluorescence intensity of total peptide initially added to the transwell apical side, and FMedium is the fluorescence intensity of the medium.
The translocation of unlabeled peptides was determined by the calculation of the respective area under the curve (AUC) in the reversed phase HPLC chromatograms. After 24 h incubation, samples from the apical and basolateral side were collected and analyzed by HPLC on a PerkinElmer Series 200 pump coupled to a PerkinElmer Series 200 UV/Vis Detector on a Luca C18 column (4.6 mm × 50 mm, 3 μm, Phenomenex, United States), eluting with linear gradients of HCOOH/MeCN (0.1%, v/v) into HCOOH/H2O (0.1%, v/v) over 15 min at 1 mL/min. UV detection was λ = 220 nm. The percentage (%) of translocation was calculated using the following equation:
(4) Translocation(%)=(AUCi/AUCpeptide)×100
AUCi is the AUC of peptide recovered and AUCpeptide is the AUC of total peptide initially added to the transwell apical side.

[2] = CellTiter-Blue cell viability assay, HBEC-5i; assay type: cell-based, human; conditions: human, HBEC-5i cells, Table 1, peptide 0.01-100 μM, mean ± SD, triplicates of three independent experiments, read-out: Cytotoxicity HBEC-5i cells IC50
Procedure: (§1) Peptides cytotoxicity against both HBEC-5i and MDA-MB-231 cells was determined using CellTiter-Blue® Cell Viability Assay, according to the manufacturer’s instructions. The assay is based on the ability of viable cells to reduce resazurin into resorufin, a highly fluorescent metabolite. […] Therefore, using this methodology is possible to distinguish between metabolic and non-metabolic cells and indirectly determine the cytotoxicity of peptides. Briefly, HBEC-5i and MDA-MB-231 cells were carefully detached from T-flasks, as described previously, and seeded 15,000/100 and 10,000/100 μL, respectively, in 96-well plates (Corning, United States) and incubated for 24 h. After medium removal, cells were washed two times with 1× PBS and 100 μL of previously diluted peptides (range between 0.01 and 100 μM) in either DMEM or DMEM:F12 medium were added to MDA-MB-231 or HBEC-5i cells, respectively. After 24 h incubation, cells were washed two times with 1× PBS, and 20 μL of CellTiter-Blue® Reagent (diluted in 100 μL of medium) was added to each well and incubated for 3 h in a humidified atmosphere of 5% CO2 at 37°C. The fluorescence intensity was measured at λ with an excitation of 560 nm and maximum emission at 590 nm using the infinite F200 TECAN plate reader. Medium and 1% Triton X-100-containing medium were used as positive controls (100% cell viability) and negative controls (0% cell viability), respectively. Cell viability (%) was determined using the following equation:
(§2) (7) CellViability=FP-FNC/FPC-FNC×100
(§3) Fp is the fluorescence intensity of peptide-treated cells, FNC is the fluorescence intensity for negative controls, and FPC is the fluorescence intensity for positive controls.
(§4) Experiments were performed on different days using independently grown cell cultures.
(§5) FIGURE 4 In vitro cytotoxicity unlabeled- and labeled-peptides. (A,B) Cytotoxicity against HBEC-5i cells. (C,D) Cytotoxicity against MDA-MB-231 cells. 1.5 × 10^4 and 1.0 × 10^4 cells of HBEC-5i and MDA-MB-231 cells, respectively, were incubated with various concentrations of peptides (range from 0.01 to 100 μM). The percentage of viability was determined using CellTiter® Blue reagent assay. […] Error bars, S.D.

HBEC-5i cells = test: CellTiter-Blue cell viability assay, HBEC-5i; assay type: cell-based, human; conditions: peptide 0.01-100 μM, mean ± SD, triplicates of three independent experiments; for Cytotoxicity HBEC-5i cells IC10: Table 1, concentration causing 10% cell death; for Cytotoxicity HBEC-5i cells IC10 / Cytotoxicity HBEC-5i cells IC90: 24 h; for Cytotoxicity HBEC-5i cells IC90: Table 1, concentration causing 90% cell death; for IC50: Table 1, 24 h, read-out: Cytotoxicity HBEC-5i cells IC50
Procedure: as §1, §2, §3, §4, §5

human RBCs [3] = tested on: human RBCs
Procedure: (§6) Fresh human blood was collected in EDTA tubes and centrifuged at 1,000 × g for 10 min at 4°C. The supernatant was discharged, and the pellet containing RBCs was washed three times with 1× PBS (137 mM NaCl, 2.7 mM KCl, 10 mM Na2HPO4, and 1.8 mM KH2PO4, pH 7.4) and resuspended in 1× PBS to obtain a 2.0% (v/v) suspension. Then, RBCs were added to centrifuge tubes containing two-fold serially diluted peptides to a final concentration ranging from 0.01 to 100 μM. The suspension was incubated for 24 h at 37°C with gentle stirring. After that, samples were centrifuged for 2 min at 1,000 × g. Supernatants were transferred to 96-well plates, and the hemoglobin released measured by absorbance at 570 nm in an Infinite F200 TECAN plate reader. 1× PBS with no peptides and Triton X-100 at 1 and 4% (v/v) were used as negative and positive controls, respectively. Hemolytic activity (%) was determined using the following equation:
(§7) (2) Hemolyticactivity(%)=AbsPT-AbsNC/AbsPC-AbsNC
(§8) where, AbsPT is the absorbance of treated samples, AbsNC is the absorbance from negative control, and AbsPC absorbance from positive control.
(§9) HC50 values were determined using the GraphPad Prism 7.0 software using a log(inhibitor) vs. normalized response. Experiments were performed on different days using independent blood donors.
(§10) (range from 0.01 to 100 μM). The percentage of hemolysis was determined by the absorbance of hemoglobin released into the supernatant. Melittin was included as a control peptide with hemolytic properties. The values were obtained from triplicates of three independent experiments. Error bars, S.D.

human RBCs [4] = test: Hemolytic activity on human red blood cells; conditions: 37°C; for Hemolytic activity HC10 / Hemolytic activity HC50 / Hemolytic activity HC90: Table 1, human RBCs in 1x PBS pH 7.4, 24 h, peptide 0.01-100 μM, mean ± SD, triplicates of three independent experiments; for Hemolytic activity HC10: concentration causing 10% hemolysis, hemoglobin absorbance 570 nm; for Hemolytic activity HC50: concentration causing 50% hemolysis; for Hemolytic activity HC50 / Hemolytic activity HC90: absorbance 570 nm; for Hemolytic activity HC90: concentration causing 90% hemolysis
Procedure: as §6, §7, §8, §9, §10

[5] = unlabeled peptide, quantified by HPLC (AUC, UV 220 nm)
[6] = labeled peptide, quantified by fluorescence emission

Molecule	Translocation (%) [1, 5]	CC50 at 24 h [2]	Cytotoxicity HBEC-5i cells IC10 (HBEC-5i cells)	Cytotoxicity HBEC-5i cells IC90 (HBEC-5i cells)	Hemolytic activity HC10 (human RBCs [3]; pH 7.4)	Hemolytic activity HC50 (human RBCs [3]; pH 7.4)	Hemolytic activity HC90 (human RBCs [3]; pH 7.4)	Translocation (%) [1, 6]	Hemolytic activity HC10 (human RBCs [4])	Hemolytic activity HC50 (human RBCs [4])	Hemolytic activity HC90 (human RBCs [4])	Hemolysis of RBCs, in words (human RBCs [4]; human RBCs, up to 100 μM, 24 h)	IC50 (HBEC-5i cells)	Hemolytic activity HC10 (human RBCs [3])	Hemolytic activity HC50 (human RBCs [3])	Hemolytic activity HC90 (human RBCs [3])
SGTQEEY-NH2 [PepNeg]	50.16 ± 3.13%	> 200 µM	>200 µM	>200 µM	>200 µM	>200 µM	>200 µM									
C[C@@H](O)[C@H](NC(=O)CNC(=O)[C@H](CO)NC(=O)c1ccc2c(c1)C(=O)OC21c2ccc(O)cc2Oc2cc(O)ccc21)C(=O)N[C@@H](CCC(N)=O)C(=O)N[C@@H](CCC(=O)O)C(=O)N[C@@H](CCC(=O)O)C(=O)N[C@@H](Cc1ccc(O)cc1)C(N)=O [CF-PepNeg] (5FAM-SGTQEEY-NH2)		> 200 µM	>200 µM					56.01 ± 3.49%								
AGILKRW-NH2 [PepH3]	55.15 ± 3.16%	> 200 µM	>200 µM	>200 µM					>200 µM	>200 µM	>200 µM	non-hemolytic				
TF3-SGTQEEY-amide [TF3-PepNeg]			>200 µM	>200 µM				53.69 ± 2.94%	>200 µM	>200 µM	>200 µM		> 200 µM			
CC[C@H](C)[C@H](NC(=O)CNC(=O)[C@H](C)NC(=O)c1ccccc1-c1c2ccc(=[N+](CC)CC)cc-2oc2cc(N(CC)CC)ccc12)C(=O)N[C@@H](CC(C)C)C(=O)N[C@@H](CCCCN)C(=O)N[C@@H](CCCNC(=N)N)C(=O)N[C@@H](Cc1c[nH]c2ccccc12)C(N)=O [RhB-PepH3] (RhodamineB-AGILKRW-NH2)		> 200 µM	>200 µM	>200 µM	9.208 µM	128.3 µM	>200 µM	51.57 ± 4.81%						9.208 ± 1.564 µM	128.3 ± 6.596 µM	> 200 µM
CC[C@H](C)[C@H](NC(=O)CNC(=O)[C@H](C)NC(=O)c1ccc2c(c1)C(=O)OC21c2ccc(O)cc2Oc2cc(O)ccc21)C(=O)N[C@@H](CC(C)C)C(=O)N[C@@H](CCCCN)C(=O)N[C@@H](CCCNC(=N)N)C(=O)N[C@@H](Cc1c[nH]c2ccccc12)C(N)=O [CF-PepH3] (5FAM-AGILKRW-NH2)		> 200 µM	>200 µM		>200 µM	>200 µM	>200 µM	57.09 ± 2.43%								
TF3-AGILKRW-amide [TF3-PepH3]			184.9 ± 6.57 µM	>200 µM				56.74 ± 3.89%	>200 µM	>200 µM	>200 µM		> 200 µM			
CCN(CC)c1ccc2c(-c3ccccc3C(=O)N[C@@H](CO)C(=O)NCC(=O)N[C@H](C(=O)N[C@@H](CCC(N)=O)C(=O)N[C@@H](CCC(=O)O)C(=O)N[C@@H](CCC(=O)O)C(=O)N[C@@H](Cc3ccc(O)cc3)C(N)=O)[C@@H](C)O)c3ccc(=[N+](CC)CC)cc-3oc2c1 [RhB-PepNeg] (RhodamineB-SGTQEEY-NH2)		> 200 µM	>200 µM	>200 µM				51.57 ± 2.43%	>200 µM	>200 µM	>200 µM					
CC[C@H](C)[C@H](NC(=O)CNC(=O)[C@H](C)NC(=O)CCCCCN1C(=CC=CC2=[N+](CC)c3ccccc3C2(C)C)C(C)(C)c2ccccc21)C(=O)N[C@@H](CC(C)C)C(=O)N[C@@H](CCCCN)C(=O)N[C@@H](CCCNC(=N)N)C(=O)N[C@@H](Cc1c[nH]c2ccccc12)C(N)=O [Q570-PepH3] (X1-AGILKRW-NH2)		> 200 µM	>200 µM		>200 µM	>200 µM	>200 µM	59.60 ± 2.64%						> 200 µM	> 200 µM	> 200 µM
CC[N+]1=C(C=CC=C2N(CCCCCC(=O)N[C@@H](CO)C(=O)NCC(=O)N[C@H](C(=O)N[C@@H](CCC(N)=O)C(=O)N[C@@H](CCC(=O)O)C(=O)N[C@@H](CCC(=O)O)C(=O)N[C@@H](Cc3ccc(O)cc3)C(N)=O)[C@@H](C)O)c3ccccc3C2(C)C)C(C)(C)c2ccccc21 [Q570-PepNeg] (X1-SGTQEEY-NH2)		> 200 µM	>200 µM					48.89 ± 3.05%								
